Laboratory results: patent publication US20020035061A1, “COMPOSITIONS AND METHODS FOR TREATING INFECTIONS USING CATIONIC PEPTIDES ALONE OR IN COMBINATION WITH ANTIBIOTICS” (priority 1996, published 2002)
Read-outs that look alike come from different tables or passages of the source.

Key:
E. faecalis = type: cell-based; conditions: for MIC: E. faecalis strain EFS002; for MIC, Peptide: unmodified parent peptide
[1] = test system: microorganisms with acquired resistance; assay: microbe, parasite or virus in culture; type: cell-based
A. calcoaceticus = type: cell-based
S. pneumoniae = assay: Agarose dilution assay (MIC); type: cell-based
S. pyogenes = assay: Agarose dilution assay (MIC); type: cell-based; conditions: S. pyogenes strain SPY006
[2] = test system: inherently resistant microorganisms; assay: microbe, parasite or virus in culture; type: cell-based
K. pneumoniae = type: cell-based
S. maltophilia = type: cell-based
S. marcescens = type: cell-based
bacterial isolates = assay: microbe, parasite or virus in culture; type: cell-based
E. faecium = type: cell-based
P. aeruginosa = type: cell-based
S. epidermidis = type: cell-based
E. cloacae = type: cell-based
E. coli = type: cell-based
H. influenzae = assay: Agarose dilution assay (MIC); type: cell-based
S. aureus = type: cell-based; conditions: for MIC, Peptide: unmodified parent peptide
[3] = test system: MSSA (Smith, ATCC # 19640); assay: In vivo efficacy, MSSA infection; parameters: species or system S. aureus; conditions: formulation D, 60 min post-infection, end of eight day observation
[4] = A. calcoaceticus 3, Piperacillin section
[5] = P. aeruginosa 7, Piperacillin section
[6] = P. aeruginosa 23, Piperacillin section
[7] = S. maltophilia 2, Piperacillin section
[8] = S. marcescens 1, Piperacillin section
[9] = peptide + Piperacillin, A. calcoaceticus 3
[10] = peptide + Piperacillin, P. aeruginosa 7
[11] = peptide + Piperacillin, P. aeruginosa 23
[12] = peptide + Piperacillin, S. maltophilia 2
[13] = peptide + Piperacillin, S. marcescens 1
[14] = S. aureus 19 MRSA, Piperacillin section
[15] = peptide + Piperacillin, S. aureus 19 MRSA
[16] = A. baumannii ABI001, Tobramycin section
[17] = P. aeruginosa PA032, Tobramycin section
[18] = S. maltophilia SMA029, Tobramycin section
[19] = S. maltophilia SMA030, Tobramycin section
[20] = peptide + Tobramycin, A. baumannii ABI001
[21] = peptide + Tobramycin, P. aeruginosa PA032
[22] = peptide + Tobramycin, S. maltophilia SMA029
[23] = peptide + Tobramycin, S. maltophilia SMA030
[24] = S. aureus SA014 (also SA014 MRSA)

ILKKWPWWPWRR [MBI 11G7CN]
16 µg/mL: Piperacillin MIC + Peptide ([1]; A. calcoaceticus 3) | Piperacillin MIC + Peptide ([1]; H. influenzae 1) | Peptide MIC + Piperacillin ([1]; S. maltophilia 2) | Piperacillin MIC + Peptide ([1]; S. maltophilia 2) | Piperacillin MIC + Peptide ([1]; S. marcescens 1) | MIC (S. pyogenes) | MIC (K. pneumoniae; K. pneumoniae strain KP001) | Peptide MIC + Piperacillin (bacterial isolates; A. calcoaceticus 3) | Piperacillin MIC + Peptide (bacterial isolates; S. marcescens 1)
0.52: FIC (bacterial isolates; peptide + Piperacillin, H. influenzae SB1)
0.25: FIC [1, 13] | FIC ([2]; peptide + Piperacillin, S. aureus MRSA) | FIC (bacterial isolates; [13])
1 µg/mL: Peptide MIC + Piperacillin ([1]; P. aeruginosa 23) | Peptide MIC + Piperacillin ([1]; S. marcescens 1) | Peptide MIC + Piperacillin (bacterial isolates; P. aeruginosa 23) | Peptide MIC + Piperacillin (bacterial isolates; S. marcescens 1)
4 µg/mL: Peptide MIC + Piperacillin (bacterial isolates; H. influenzae SB1)
0.56: FIC (bacterial isolates; [15])
0.5 µg/mL: Peptide MIC + Piperacillin (bacterial isolates; S. aureus 19 MRSA)
>128 µg/mL: Peptide MIC Alone ([1]; H. influenzae 1, Piperacillin section) | Peptide MIC Alone [1, 5] | Peptide MIC Alone [1, 6] | Peptide MIC Alone [1, 8] | MIC (S. pneumoniae; S. pneumoniae strain SBSPN2) | MIC (S. pneumoniae; S. pneumoniae strain SPN044) | MIC (S. marcescens; S. marcescens strain SBSM1) | MIC (S. marcescens; S. marcescens strain SMS003) | Peptide MIC Alone (bacterial isolates; H. influenzae SB1, Piperacillin section) | Peptide MIC Alone (bacterial isolates; [5]) | Peptide MIC Alone (bacterial isolates; [6]) | Peptide MIC Alone (bacterial isolates; [8]) | MIC (P. aeruginosa; P. aeruginosa strain PA006) | MIC (H. influenzae; H. influenzae strain HIN002) | MIC (H. influenzae; H. influenzae strain SBHIN2)
8 µg/mL: Peptide MIC Alone ([2]; S. aureus MRSA, Piperacillin section) | Peptide MIC + Piperacillin (bacterial isolates; S. aureus 18 MRSA) | Peptide MIC Alone (bacterial isolates; [14]) | MIC (E. faecium; E. faecium strain EFM001) | MIC (E. coli; E. coli strain ECO005)
0.63: FIC [1, 9]
64 µg/mL: Peptide MIC Alone [1, 4] | Peptide MIC + Piperacillin ([1]; H. influenzae 1) | Peptide MIC + Piperacillin ([1]; P. aeruginosa 7) | Piperacillin MIC + Peptide ([1]; P. aeruginosa 7) | Piperacillin MIC + Peptide ([1]; P. aeruginosa 23) | Peptide MIC Alone [1, 7] | Peptide MIC Alone (bacterial isolates; [4]) | Peptide MIC + Piperacillin (bacterial isolates; P. aeruginosa 7) | Piperacillin MIC + Peptide (bacterial isolates; P. aeruginosa 7) | Piperacillin MIC + Peptide (bacterial isolates; P. aeruginosa 23) | Piperacillin MIC + Peptide (bacterial isolates; S. aureus 18 MRSA) | Piperacillin MIC + Peptide (bacterial isolates; S. aureus 19 MRSA) | MIC (E. cloacae; E. cloacae strain ECL006)
128 µg/mL: MIC (A. calcoaceticus; A. calcoaceticus strain AC001)
32 µg/mL: MIC (E. faecalis) | Peptide MIC + Piperacillin ([1]; A. calcoaceticus 3) | MIC (S. maltophilia; S. maltophilia strain SMA001) | Piperacillin MIC + Peptide (bacterial isolates; A. calcoaceticus 3) | Peptide MIC Alone (bacterial isolates; S. aureus 18 MRSA, Piperacillin section)
0.75: FIC ([1]; peptide + Piperacillin, H. influenzae 1) | FIC [1, 12]
2 µg/mL: Peptide MIC + Piperacillin ([2]; S. aureus MRSA) | MIC (S. epidermidis; S. epidermidis strain SE002) | MIC (S. aureus; S. aureus strain SA012)
0.50: FIC [1, 10] | FIC [1, 11] | FIC (bacterial isolates; [9]) | FIC (bacterial isolates; [10]) | FIC (bacterial isolates; [11]) | FIC (bacterial isolates; peptide + Piperacillin, S. aureus 18 MRSA)
0.25 µg/mL: Piperacillin MIC + Peptide (bacterial isolates; H. influenzae SB1)

ILKKWVWWPWRRK [MBI 11F3CN]
0.56: FIC (bacterial isolates; peptide + Tobramycin, S. haemolyticus SHA005)
0.28: FIC (bacterial isolates; [22])
0.26: FIC [1, 22] | FIC [1, 23] | FIC (bacterial isolates; [23])
0%: % Survival ([3]; 12 mg/kg ip)
10%: % Survival ([3]; 18 mg/kg ip)
8 µg/mL: MIC (E. faecalis) | MIC (S. pyogenes) | Peptide MIC + Tobramycin (bacterial isolates; A. baumannii ABI002) | Peptide MIC Alone (bacterial isolates; S. aureus SB3MRSA, Piperacillin section) | MIC (E. coli; E. coli strain ECO002) | MIC, Peptide (S. aureus; S. aureus SA011) | MIC, Peptide (S. aureus; S. aureus SA014)
0.75: FIC [1, 12]
4 µg/mL: Peptide MIC + Piperacillin ([1]; A. calcoaceticus 3) | Tobramycin MIC + Peptide ([1]; P. aeruginosa PA032) | MIC (A. calcoaceticus; A. calcoaceticus strain AC002) | Peptide MIC Alone ([2]; S. aureus, Tobramycin section) | Piperacillin MIC + Peptide (bacterial isolates; P. aeruginosa 41) | Tobramycin MIC + Peptide (bacterial isolates; P. aeruginosa PA032) | Peptide MIC Alone (bacterial isolates; [14]) | Peptide MIC Alone (bacterial isolates; S. aureus SA014 (also SA014 MRSA), Tobramycin section) | Peptide MIC Alone (bacterial isolates; S. haemolyticus SHA005, Tobramycin section) | Peptide MIC + Tobramycin (bacterial isolates; S. maltophilia SMA029) | MIC (E. faecium; E. faecium strain EFM003)
0.53: FIC [1, 20] | FIC (bacterial isolates; [20])
0.63: FIC [1, 9] | FIC (bacterial isolates; peptide + Piperacillin, P. aeruginosa 41)
32 µg/mL: MIC, Peptide (E. faecalis; E. faecalis EFS001) | Peptide MIC Alone [1, 16] | Peptide MIC Alone [1, 4] | Peptide MIC Alone [1, 7] | Peptide MIC + Tobramycin ([1]; S. maltophilia SMA029) | Peptide MIC + Tobramycin ([1]; S. maltophilia SMA030) | Peptide MIC Alone (bacterial isolates; [16]) | Piperacillin MIC + Peptide (bacterial isolates; S. aureus 19 MRSA) | Tobramycin MIC + Peptide (bacterial isolates; S. maltophilia SMA029) | Peptide MIC + Tobramycin (bacterial isolates; S. maltophilia SMA030)
1 µg/mL: Tobramycin MIC + Peptide ([1]; S. maltophilia SMA029) | Tobramycin MIC + Peptide ([1]; S. maltophilia SMA030) | Tobramycin MIC + Peptide (bacterial isolates; S. maltophilia SMA030) | MIC, Peptide (S. aureus; S. aureus SA093)
0.38: FIC (bacterial isolates; [15])
0.50: FIC [1, 21] | FIC (bacterial isolates; peptide + Piperacillin, S. aureus SB3MRSA) | FIC (bacterial isolates; [21])
16 µg/mL: MIC, Peptide (E. faecalis; E. faecalis EFS004) | MIC, Peptide (E. faecalis; E. faecalis EFS008) | Peptide MIC + Tobramycin ([1]; A. baumannii ABI001) | Piperacillin MIC + Peptide ([1]; A. calcoaceticus 3) | Peptide MIC + Piperacillin ([1]; S. maltophilia 2) | Piperacillin MIC + Peptide ([1]; S. maltophilia 2) | Peptide MIC + Tobramycin (bacterial isolates; A. baumannii ABI001) | Peptide MIC Alone (bacterial isolates; A. baumannii ABI002, Tobramycin section) | MIC, Peptide (E. coli; E. coli ECO005, unmodified parent peptide) | MIC, Peptide (S. aureus; S. aureus SA018)
2 µg/mL: MIC, Peptide (A. calcoaceticus; A. calcoaceticus AC002, unmodified parent peptide) | Peptide MIC + Tobramycin ([2]; S. aureus) | Tobramycin MIC + Peptide (bacterial isolates; A. baumannii ABI002) | Peptide MIC + Tobramycin (bacterial isolates; [24]) | Tobramycin MIC + Peptide (bacterial isolates; [24]) | Peptide MIC + Piperacillin (bacterial isolates; S. aureus SB3MRSA) | Peptide MIC + Tobramycin (bacterial isolates; S. haemolyticus SHA005) | MIC (S. epidermidis; S. epidermidis strain SE003) | MIC, Peptide (S. aureus; S. aureus SA010) | MIC, Peptide (S. aureus; S. aureus SA025) | MIC (S. aureus; S. aureus strain SA005)
0.25 µg/mL: Tobramycin MIC + Peptide (bacterial isolates; S. haemolyticus SHA005)
>128 µg/mL: Peptide MIC Alone [1, 17] | MIC (S. pneumoniae; S. pneumoniae strain SBSPN3) | MIC (S. pneumoniae; S. pneumoniae strain SPN044) | MIC, Peptide (S. marcescens; S. marcescens SMS003, unmodified parent peptide) | MIC (S. marcescens; S. marcescens strain SMS004) | Peptide MIC Alone (bacterial isolates; [17]) | MIC, Peptide (E. cloacae; E. cloacae ECL007, unmodified parent peptide) | MIC (E. cloacae; E. cloacae strain ECL007) | MIC (H. influenzae; H. influenzae strain HIN002)
90%: % Survival ([3]; 24 mg/kg ip)
64 µg/mL: Peptide MIC + Piperacillin ([1]; P. aeruginosa 7) | Piperacillin MIC + Peptide ([1]; P. aeruginosa 7) | Piperacillin MIC + Peptide ([1]; P. aeruginosa 23) | Peptide MIC Alone [1, 6] | Peptide MIC + Tobramycin ([1]; P. aeruginosa PA032) | MIC, Peptide (K. pneumoniae; K. pneumoniae KP001, unmodified parent peptide) | MIC (K. pneumoniae; K. pneumoniae strain KP002) | MIC, Peptide (S. maltophilia; S. maltophilia SMA002, unmodified parent peptide) | MIC (S. maltophilia; S. maltophilia strain SMA002) | Piperacillin MIC + Peptide (bacterial isolates; P. aeruginosa 23) | Peptide MIC Alone (bacterial isolates; [6]) | Peptide MIC + Piperacillin (bacterial isolates; P. aeruginosa 41) | Peptide MIC + Tobramycin (bacterial isolates; P. aeruginosa PA032) | Piperacillin MIC + Peptide (bacterial isolates; S. aureus SB3MRSA)
0.51: FIC [1, 11] | FIC ([2]; peptide + Tobramycin, S. aureus) | FIC (bacterial isolates; [11]) | FIC (bacterial isolates; peptide + Tobramycin, S. aureus SA014 (also SA014 MRSA))
1.00: FIC [1, 10] | FIC (bacterial isolates; peptide + Tobramycin, A. baumannii ABI002)
128 µg/mL: Peptide MIC Alone [1, 5] | Peptide MIC Alone [1, 18] | Peptide MIC Alone [1, 19] | Peptide MIC Alone (bacterial isolates; P. aeruginosa 41, Piperacillin section) | Peptide MIC Alone (bacterial isolates; [18]) | Peptide MIC Alone (bacterial isolates; [19]) | MIC, Peptide (P. aeruginosa; P. aeruginosa PA004, unmodified parent peptide) | MIC (P. aeruginosa; P. aeruginosa strain PA041)
0.5 µg/mL: Tobramycin MIC + Peptide ([1]; A. baumannii ABI001) | Peptide MIC + Piperacillin ([1]; P. aeruginosa 23) | Tobramycin MIC + Peptide (bacterial isolates; A. baumannii ABI001) | Peptide MIC + Piperacillin (bacterial isolates; P. aeruginosa 23)
